In US12037354B2, “Cyclic pantetheine derivatives and uses thereof” (VectivBio Comet AG, priority 2018, dated 2024):

Legend:
Format in all cases: cell-based, human
[1] = test system: Bronchial epithelial cells co-cultured with dermal fibroblast (BF4T system); assay: BioMAP BF4T system, Example 830; conditions: 10 uM
Experimental: (§1) The BioMAP platform (BioMAP® Diversity PLUS Panel from Eurofins) is an in vitro phenotypic profiling technology that screened the compounds of the present disclosure (hereafter indicated as test agents) in human primary cell-based systems modelling complex tissue and disease states. The BioMAP assays were performed using the Eurofin's BioMAP Technology Platform as (see references 1 to 13 in the example 824 section) to model different diseases on primary cell-based model systems. These systems consisted of either single primary cell types or co-culture cells. Adherent cell types were cultured or co-cultured in 96 or 384-well plates until confluence followed by the addition of compounds prepared in DMSO at a final concentration of ≤0.1%. In each cell-based system, primary cells from heathy donors (2-6 donors) were pooled and treated with compounds at 1 and 10 μM dose 1 h prior to stimulation and remain in culture as indicated in
(§2) Example 825, Example 826, Example 827, Example 828, Example 829, Example 830, Example 831, Example 832, Example 833, Example 834, Example 835, Example 836 and Example 837. For on the BioMAP® Diversity PLUS® Panel, please see the following references, which are incorporate herein.
Following the general procedure as described in Example 824, Bronchial epithelial cells were co-cultured with dermal fibroblast (BF4T system) and were treated with TNFα and IL-4 for 24 h in the presence or absence of the compounds to model asthma, allergy, fibrosis, lung inflammation. Biomarkers read out were; MCP-1, Eotaxin-3, VCAM-1, ICAM-1, CD90, IL-8, IL-1α, keratin 8/18, MMP-1, MMP-3, MMP-9, PAI-1, SRB, tPA, uPA.

[2] = test system: Bronchial epithelial cells (BE3C system); assay: BioMAP BE3C system, Example 831; conditions: for % decrease in MMP-9: 1 uM
Experimental: as §1, §2
Following the general procedure as described in Example 824, Bronchial epithelial cells (BE3C system) were treated with IL-1f3, TNFα and IFNγ for 24 h in the presence or absence of the compounds to model lung inflammation and chronic obstructive pulmonary disease (COPD). Biomarkers read out were; ICAM-1, uPAR, IP-10, I-TAC, IL-8, MIG, EGFR, HLA-DR, IL-1α, Keratin 8/18, MMP-1, MMP-9, PAI-1, SRB, tPA, uPA.

[3] = test system: Peripheral blood mononuclear cells co-cultured with venular endothelial cells (HUVEC) (LPS system); assay: BioMAP LPS system, Example 827
Experimental: as §1, §2
Following the general procedure as described in Example 824, Peripheral blood mononuclear cells co-cultured with venular endothelial cells (HUVEC) (LPS system) were stimulated with LPS for 24 h in the presence or absence of compounds, to model cardiovascular disease and chronic inflammation. Biomarkers read out were; MCP-1, VCAM-1, Thrombomodulin, Tissue Factor, CD40, E-selectin, CD69, IL-8, IL-1α, M-CSF, sPGE2, SRB and TNFα.

[4] = test system: Venular endothelial cells co-cultured with macrophages (Mphg system); assay: BioMAP Mphg system, Example 836
Experimental: as §1, §2
Following the general procedure as described in Example 824, Venular endothelial cells co-cultured with macrophages (Mphg system) and treated with TLR2 ligand for 24 h in the presence or absence of the compounds to mimic cardiovascular inflammation, restenosis and chronic inflammation. Biomarkers read out were; MCP-1, MIP-1α, VCAM-1, CD40, E-selectin, CD69, IL-8, IL-1α, M-CSF, sIL-10 and SRB.

[5] = test system: Venular Endothelial cells (HUVEC) (4H system); assay: BioMAP 4H system, Example 826
Experimental: as §1, §2
Following the general procedure as described in Example 824, Venular Endothelial cells (HUVEC) (4H system) were treated with IL-4 and histamine for 24 h to model Th2 driven allergy and autoimmunity in the presence or absence of compounds. Biomarkers read out were; MCP-1, Eotaxin-3. VCAM-1, P-selectin, uPAR (CD87), SRB and VEGFRII.

[6] = test system: Peripheral blood mononuclear cells co-cultured with venular endothelial cells (Sag system); assay: BioMAP Sag system, Example 828
Experimental: as §1, §2
Following the general procedure as described in Example 824, Peripheral blood mononuclear cells were co-cultured with venular endothelial cells and treated with soluble antigen (T-cell ligands) (Sag system) in the presence or absence of compounds to model autoimmune and chronic inflammation. Biomarkers read out were; MCP-1, CD38, CD40, E-selectin, CD69, IL-8, MIG, PBMC cytotoxicity, Proliferation and SRB.

[7] = test system: Venular Endothelial cells (HUVEC) (3C system); assay: BioMAP 3C system, Example 825
Experimental: as §1, with “In each cell-based system, primary cells from heathy donors (2-6 donors) were pooled and treated with compounds at 1 and 10 μM dose 1 h prior to stimulation and remain in culture as indicated in” left out
Following the general procedure as described in Example 824, Venular Endothelial cells (HUVEC) (3C system) were treated with IL-1β, TNFα, IFNγ for 24 h to model Th1 driven cardiovascular and chronic inflammation diseases in the presence or absence of the compounds. Biomarker read out were; Tissue Factor, ICAM-1, E-selectin, uPAR (CD87), IL-8, […], HLA-DR, proliferation and SRB (Sulfo-rhodamine i.e. staining for protein content).

[8] = Example 988, concentration tested 1 uM
[9] = procedure of Example 827, concentration tested 10 uM
[10] = procedure of Example 825, concentration tested 1 uM
[11] = procedure of Example 836, 10 uM

CC(=O)CC(=O)SCCNC(=O)CCNC(=O)[C@@H]1OP(=O)(O)OCC1(C)C [Compound 42]
≥20%: % decrease in M-CSF [3, 8] | % decrease in IL-8 ([3]; LPS system, 1 uM) | % decrease in M-CSF ([3]; LPS system, 1 uM) | % increase in sTNFα ([3]; LPS system, 10 uM) | % increase in sTNFα ([3]; concentration tested 10 uM) | % decrease in IL-8 ([3]; procedure of Example 827, concentration tested 1 uM)
≥10%: % increase in Eotaxin-3 [1] | % increase in VCAM-1 [1] | % decrease in MMP-9 [2] | % decrease in IL-1α ([3]; LPS system, 1 uM) | % decrease in Thrombomodulin ([3]; LPS system, 1 uM) | % decrease in Tissue Factor ([3]; LPS system, 10 uM) | % decrease in IL-1α ([3]; concentration tested 1 uM) | % decrease in Thrombomodulin ([3]; concentration tested 1 uM) | % decrease in Tissue Factor ([3]; concentration tested 10 uM) | % decrease in α-SMA ([4]; procedure of Example 836, 1 uM) | % increase in MMP-1 ([4]; procedure of Example 836, 1 uM) | % decrease in E-Selectin ([5]; 4H system, 1 uM) | % decrease in Eotaxin-3 ([5]; 4H system, 1 uM) | % decrease in VEGFRII ([5]; 4H system, 1 uM) | % decrease in E-Selectin ([5]; concentration tested 1 uM) | % decrease in Eotaxin-3 ([5]; concentration tested 1 uM) | % decrease in VEGFRII ([5]; concentration tested 1 uM) | % increase in CD69 ([6]; Sag system, 10 uM) | % increase in MCP-1 ([6]; Sag system, 10 uM) | % increase in CD69 ([6]; concentration tested 10 uM)

COC(=O)CCC(=O)SCCNC(=O)CCNC(=O)[C@@H]1OC(=O)OCC1(C)C [Compound 451]
≥20%: % decrease in M-CSF [3, 8] | % decrease in M-CSF ([3]; LPS system, 1 uM) | % decrease in IL-8 ([3]; LPS system, 10 uM) | % decrease in IL-8 [3, 9] | % increase in Proliferation (HUVEC) ([7]; 3C system, 10 uM) | % increase in Proliferation (HUVEC) ([7]; concentration tested 10 uM)
≥10%: % increase in Eotaxin-3 [1] | % increase in VCAM-1 [1] | % decrease in MMP-9 [2] | % decrease in tPA ([2]; 10 uM) | % decrease in IL-1α ([3]; LPS system, 1 uM) | % decrease in Thrombomodulin ([3]; LPS system, 1 uM) | % decrease in Tissue Factor ([3]; LPS system, 10 uM) | % decrease in IL-1α ([3]; concentration tested 1 uM) | % decrease in Thrombomodulin ([3]; concentration tested 1 uM) | % decrease in Tissue Factor ([3]; concentration tested 10 uM) | % decrease in IL-8 ([7]; 3C system, 1 uM) | % decrease in IL-8 [7, 10] | % decrease in α-SMA ([4]; procedure of Example 836, 1 uM) | % decrease in VCAM-1 [4, 11] | % increase in MMP-1 [4, 11] | % decrease in E-Selectin ([5]; 4H system, 1 uM) | % decrease in Eotaxin-3 ([5]; 4H system, 1 uM) | % decrease in VEGFRII ([5]; 4H system, 1 uM) | % decrease in MCP-1 ([5]; 4H system, 10 uM) | % decrease in E-Selectin ([5]; concentration tested 1 uM) | % decrease in Eotaxin-3 ([5]; concentration tested 1 uM) | % decrease in VEGFRII ([5]; concentration tested 1 uM) | % decrease in MCP-1 ([5]; concentration tested 10 uM) | % decrease in CXCL8/IL-8 ([6]; Sag system, 10 uM) | % decrease in CXCL8/IL-8 ([6]; concentration tested 10 uM)

CCOP1(=O)OCC(C)(C)[C@H](C(=O)NCCC(=O)NCCSC(=O)CCC(=O)O)O1 (stereo partly drawn) [Compound 61]
≥10%: % increase in Eotaxin-3 [1] | % decrease in MMP-9 [2] | % decrease in M-CSF [3, 8] | % decrease in IL-1α ([3]; LPS system, 1 uM) | % decrease in M-CSF ([3]; LPS system, 1 uM) | % decrease in sTNFα ([3]; LPS system, 1 uM) | % decrease in Tissue Factor ([3]; LPS system, 10 uM) | % increase in sTNFα ([3]; LPS system, 10 uM) | % decrease in IL-1α ([3]; concentration tested 1 uM) | % decrease in sTNFα ([3]; concentration tested 1 uM) | % decrease in Tissue Factor ([3]; concentration tested 10 uM) | % increase in sTNFα ([3]; concentration tested 10 uM) | % decrease in IL-8 ([7]; 3C system, 1 uM) | % decrease in IL-8 [7, 10] | % decrease in α-SMA [4, 11] | % increase in MMP-1 [4, 11] | % decrease in E-Selectin ([5]; 4H system, 10 uM) | % decrease in MCP-1 ([5]; 4H system, 10 uM) | % decrease in E-Selectin ([5]; concentration tested 10 uM) | % decrease in MCP-1 ([5]; concentration tested 10 uM) | % increase in PBMC Cytotoxicity ([6]; Sag system, 10 uM) | % increase in PBMC Cytotoxicity ([6]; concentration tested 10 uM)
≥20%: % decrease in IL-8 ([3]; LPS system, 10 uM) | % decrease in IL-8 [3, 9]
